In patent US20240294551A1 (AMGEN INC., priority 2022, published 2024):
Where two headings read alike, the source gives them in different places.

Legend:
[1] = test system: Phosphorylation of ERK1/2 in AsPC-1 cells; experiment: Phospho-ERK1/2 MSD Assay; format: cell-based, human; conditions: Homo sapiens, ASPC1, 2 h
Description: AsPC-1 (ATCC® CRL-1682™) cells were cultured in RPMI 1640 Medium (ThermoFisher Scientific 11875093) containing 10% fetal bovine serum (ThermoFisher Scientific 16000044) and 1× penicillin-streptomycin-glutamine (ThermoFisher Scientific 10378016). Sixteen hours prior to compound treatment, AsPC-1 cells were seeded in 96-well cell culture plates at a density of 25,000 cells/well and incubated at 37° C., 5% CO2. A compound dose-response titration was diluted in growth media, added to appropriate wells of a cell culture plate, and then incubated at 37° C., 5% CO2 for 2 hours. Following compound treatment, cells were washed with ice-cold Dulbecco's phosphate-buffered saline, no Ca^2+ or Mg^2+ (ThermoFisher Scientific 14190144), and then lysed in RIPA buffer (50 mM Tris-HCl pH 7.5, 1% Igepal, 0.5% sodium deoxycholate, 150 mM NaCl, and 0.5% sodium dodecyl sulfate) containing protease inhibitors (Roche 4693132001) and phosphatase inhibitors (Roche 4906837001). Phosphorylation of ERK1/2 in compound-treated lysates was assayed using Phospho-ERK1/2 Whole Cell Lysate kits (Meso Scale Discovery K151DWD) according to the manufacturer's protocol. Assay plates were read on a Meso Scale Discovery Sector Imager 6000, and data were analyzed using a 4-parameter logistic model to calculate IC50 values.

[2] = target: GDP-bound KRAS protein (aa 1-169), containing both G12D and C118A amino acid substitutions (Homo sapiens (Human), UniProt P01116, C118A/G12D); experiment: KRAS G12D Coupled Nucleotide Exchange Assay; format: biochemical
[3] = target: His-tagged KRAS G12D protein (Homo sapiens (Human), UniProt P01116, G12D); experiment: KRAS G12D TR-FRET Assay; format: binding
How it was run: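 His-tagged KRAS G12D (diluted to 20 nM in pH 7.4 HEPES buffer with 10 mM MgCl2 and 10 μM GDP) was preincubated with titrated compound for 30 min at room temperature. Biotinylated KRPep-2d peptide (diluted to 20 nM) was then added for 1 h, and displacement was monitored by TR-FRET.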

[4] = read-out: 2 h p-ERK (AsPC-1 cells), IC50
[5] = read-out: KRAS G12D Coupled Exchange IC50
[6] = read-out: KRAS G12D Binding IC50
[7] = read-out: 2 h p-ERK (AsPC-1 cells)
[8] = 2 hours compound pre-incubation, read-out: KRAS G12D Coupled Exchange
[9] = TR-FRET, read-out: KRAS G12D Binding

Sequence of His-tagged KRAS G12D protein (P01116 other isoform, or with tags, fused parts or gaps G12D): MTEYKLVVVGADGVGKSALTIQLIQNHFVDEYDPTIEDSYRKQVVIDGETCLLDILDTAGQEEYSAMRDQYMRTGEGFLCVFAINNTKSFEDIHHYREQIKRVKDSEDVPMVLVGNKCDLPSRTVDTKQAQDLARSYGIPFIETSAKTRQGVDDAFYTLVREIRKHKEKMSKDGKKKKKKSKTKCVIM
Sequence of GDP-bound KRAS protein (aa 1-169), containing both G12D and C118A amino acid substitutions (P01116 other isoform, or with tags, fused parts or gaps G12D/C118A): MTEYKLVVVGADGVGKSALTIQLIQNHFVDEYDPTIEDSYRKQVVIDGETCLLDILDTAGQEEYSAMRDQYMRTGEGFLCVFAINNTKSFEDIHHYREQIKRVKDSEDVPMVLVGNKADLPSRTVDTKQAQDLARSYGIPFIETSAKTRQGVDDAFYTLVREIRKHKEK

| SMILES | IC50 [1, 4] | IC50 [2, 5] | IC50 [3, 6] | IC50 [1, 7] | IC50 [2, 8] | IC50 [3, 9] |
| --- | --- | --- | --- | --- | --- | --- |
| Cc1cc2[nH]ncc2c2c1CCCCC(=O)N[C@@H]1COCCN(C1)c1nc(OC[C@@]34CCCN3C[C@H](F)C4)nc3c(F)c-2ncc13 [Example 66, (26S)-32-fluoro-4-(((2R,7aS)-2-fluorotetrahydro-1H-pyrrolo[1,2-a]pyrrol-7a(5H)-yl)methoxy)-18-methyl-28-oxa-1,3,5,9,14,15,25-heptaazahexacyclo [24.4.1.1~6,10~.0~2,7~.0~11,19~.0~12,16~]dotriaconta-2,4,6,8,10(32),11,13,16,18-nonaen-24-one] | 4700 nM | 26 nM | 34 nM |  |  |  |
| CC12CN(CCO1)c1nc(OC[C@@]34CCCN3C[C@H](F)C4)nc3c(F)c(ncc13)-c1c(c(Cl)cc3[nH]ncc13)CCCc1nc2co1 (mixture of isomers) [Example 380] |  |  |  | 1690 nM | 29 nM | 155 nM |
| Cc1cc2[nH]ncc2c2c1CCOC(=O)OC1CC3(CCCN(C3)c3nc(OC[C@@H]4CCCN4C)nc4c(F)c-2ncc34)C1 [Example 205, (1R,3S)-32-fluoro-10-methyl-24-(((2S)-1-methyl-2-pyrrolidinyl)methoxy)-4,6-dioxa-13,14,19,23,25,27-hexaazaheptacyclo[25.3.1.1~1,3~.1~18,22~.0~9,17~.0~12,16~.0~21,26~]tritriaconta-9,11,14,16,18(32),19,21,23,25-nonaen-5-one] | 36.1 nM | 6 nM | 11 nM |  |  |  |
| Cc1cc2[nH]ncc2c2c1CCOC(=O)O[C@H]1C[C@]3(CCCN(C3)c3nc(OC[C@@]45CCCN4C[C@H](F)C5)nc4cc-2nnc34)C1 [Example 358, (1R,3S)-24-(((2R,7aS)-2-fluorotetrahydro-1H-pyrrolo[1,2-a]pyrrol-7a(5H)-yl)methoxy)-10-methyl-4,6-dioxa-13,14,19,20,23,25,27-heptaazaheptacyclo[25.3.1.1~1,3~.1~18,22~.0~9,17~.0~12,16~.0~21,26~]tritriaconta-9,11,14,16,18(32),19,21,23,25-nonaen-5-one] | 384 nM | 16 nM | 24 nM |  |  |  |
| O=C1CCCOc2ccc3[nH]ncc3c2-c2ncc3c(nc(OC[C@@]45CCCN4C[C@H](F)C5)nc3c2F)N2CCC[C@H](C2)O1 [Example 30, (17R)-30-Fluoro-24-(((2R,7aS)-2-fluorotetrahydro-1H-pyrrolo[1,2-a]pyrrol-7a(5H)-yl)methoxy)-11,16-dioxa-5,6,21,23,25,29-hexaazahexacyclo[24.3.1.1˜17,21˜.0˜2,10˜.0˜3,7˜.0˜22,27˜]hentriaconta-1(30),2,4,7,9,22,24,26,28-nonaen-15-one] | 1460 nM | 141 nM | 119 nM |  |  |  |
| Fc1c2ncc3c(nc(OC[C@@]45CCCN4C[C@H](F)C5)nc13)N1CCOC[C@]3(C1)C[C@H](C3)OCCCCc1c(Cl)cc3[nH]ncc3c1-2 [Example 264, (1R,3R)-10-chloro-33-fluoro-24-(((2R,7aS)-2-fluorotetrahydro-1H-pyrrolo[1,2-a]pyrrol-7a(5H)-yl)methoxy)-4,30-dioxa-13,14,19,23,25,27-hexaazaheptacyclo[25.4.1.1~1,3~.1~18,22~.0~9,17~.0~12,16~.0~21,26~]tetratriaconta-9,11,14,16,18(33),19,21,23,25-nonaene] | 368 nM | 24 nM | 38 nM |  |  |  |
| Fc1c2ncc3c(nc(OC[C@@]45CCCN4C[C@H](F)C5)nc13)N1CCC[C@H](C1)c1cnc(o1)CCCc1c(Cl)cc3[nH]ncc3c1-2 [Example 387, (18R)-9-chloro-31-fluoro-25-(((2R,7aS)-2-fluorotetrahydro-1H-pyrrolo[1,2-a]pyrrol-7a(5H)-yl)methoxy)-33-oxa-5,6,15,22,24,26,30-heptaazaheptacyclo[25.3.1.1~14,17~.1~18,22~.0~2,10~.0~3,7~.0~23,28~]tritriaconta-1(31),2,4,7,9,14,16,23,25,27,29-undecaene] |  |  |  | 66.3 nM | 4 nM | 8 nM |
| CN1CCO[C@@H](COc2nc3c4cnc(c(F)c4n2)-c2c(c(Cl)cc4[nH]ncc24)CCCOC(=O)O[C@@H]2COCCN3C2)C1 [Example 124] | 479 nM | 15 nM | 20 nM |  |  |  |
| O=C1OCCCc2c(Cl)cc3[nH]ncc3c2-c2ncc3c(nc(OC[C@@]45CCCN4C[C@H](F)C5)nc3c2F)N2CCCC[C@@](CF)(C2)O1 [Example 339, (26S)-18-chloro-32-fluoro-26-(fluoromethyl)-4-(((2R,7aS)-2-fluorotetrahydro-1H-pyrrolo[1,2-a]pyrrol-7a(5H)-yl)methoxy)-23,25-dioxa-1,3,5,9,14,15-hexaazahexacyclo[24.4.1.1~6,10~.0~2,7~.0~11,19~.0~12,16~]dotriaconta-2,4,6,8,10(32),11,13,16,18-nonaen-24-one] | 826 nM | 501 nM | 1350 nM |  |  |  |
| Fc1c2ncc3c(nc(OC[C@@]45CCCN4C[C@H](F)C5)nc13)N1CCC[C@@H](COCCOCc3c(Cl)cc4[nH]ncc4c3-2)C1 [Example 142] | 247 nM | 15 nM | 17 nM |  |  |  |
| Cc1cc2[nH]ncc2c2c1CCCCC(=O)N[C@]1(C)COCCN(C1)c1nc(OC[C@@]34CCCN3C[C@H](F)C4)nc3c(F)c-2ncc13 (mixture of isomers) [Example 67] | 1660 nM | 34 nM | 46 nM |  |  |  |
| Cc1cc2[nH]ncc2c2c1CCCC(F)C(=O)N[C@@H]1COCCN(C1)c1nc(OC[C@@]34CCCN3C[C@H](F)C4)nc3c(F)c-2ncc13 (mixture of isomers) [Example 55] | 1380 nM | 14 nM | 19 nM |  |  |  |
| O=C1OCCc2c(Cl)cc3[nH]ncc3c2-c2ncc3c(nc(OC[C@@]45CCCN4C[C@H](F)C5)nc3c2F)N2CCC[C@@]3(C[C@H](CO3)O1)C2 [Example 314, (1R,4R)-11-chloro-33-fluoro-25-(((2R,7aS)-2-fluorotetrahydro-1H-pyrrolo[1,2-a]pyrrol-7a(5H)-yl)methoxy)-2,5,7-trioxa-14,15,20,24,26,28-hexaazaheptacyclo[26.3.1.1~1,4~.1~19,23~.0~10,18~.0~13,17~.0~22,27~]tetratriaconta-10,12,15,17,19(33),20,22,24,26-nonaen-6-one] | 590 nM |  |  |  |  |  |
| O=C1N[C@H]2CN(C[C@H]3C[C@H]32)c2nc(OC[C@@]34CCCN3C[C@H](F)C4)nc3c(F)c(ncc23)-c2c(c(Cl)cc3[nH]ncc23)CCC[C@H]1F [Example 173, (23R,26R,27R,29S)-18-chloro-23,32-difluoro-4-(((2R,7aS)-2-fluorotetrahydro-1H-pyrrolo[1,2-a]pyrrol-7a(5H)-yl)methoxy)-1,3,5,9,14,15,25-heptaazaheptacyclo[24.4.1.1~6,10~.0~2,7~.0~11,19~.0~12,16~.0~27,29~]dotriaconta-2,4,6,8,10(32),11,13,16,18-nonaen-24-one] |  | 1110 nM | 1570 nM |  |  |  |
| Cc1cc2[nH]ncc2c2c1CCCOC(=O)N1CC[C@@H]3CCN(C[C@@H]31)c1nc(OC[C@@]34CCCN3C[C@H](F)C4)nc3c(F)c-2ncc13 (mixture of isomers) [Example 75, (28S,32R)-33-fluoro-4-(((2R,7aS)-2-fluorotetrahydro-1H-pyrrolo[1,2-a]pyrrol-7a(5H)-yl)methoxy)-18-methyl-23-oxa-1,3,5,9,14,15,25-heptaazaheptacyclo[23.5.2.1~6,10~.0~2,7~.0~11,19~.0~12,16~.0~28,32~]tritriaconta-2,4,6,8,10(33),11,13,16,18-nonaen-24-one] | 213 nM |  |  |  |  |  |
| Cc1cc2[nH]ncc2c2c1CCCCO[C@H](C)[C@H]1CN(CCO1)c1nc(OC[C@@]34CCCN3C[C@H](F)C4)nc3c(F)c-2ncc13 [Example 241, (16R,17R)-30-fluoro-24-(((2R,7aS)-2-fluorotetrahydro-1H-pyrrolo[1,2-a]pyrrol-7a(5H)-yl)methoxy)-9,16-dimethyl-15,18-dioxa-5,6,21,23,25,29-hexaazahexacyclo[24.3.1.1~17,21~.0~2,10~.0~3,7~.0~22,27~]hentriaconta-1(30),2,4,7,9,22,24,26,28-nonaene] |  | 1410 nM | 1290 nM |  |  |  |
| CN(C)CC1(COc2nc3c4cc(F)c(c(F)c4n2)-c2c(c(Cl)cc4[nH]ncc24)CCCOC(=O)O[C@@H]2COCCN3C2)CC1 [Example 306, m-(26S)-18-chloro-4-((1-((dimethylamino)methyl)cyclopropyl)methoxy)-9,32-difluoro-23,25,28-trioxa-1,3,5,14,15-pentaazahexacyclo[24.4.1.1~6,10~.0~2,7~.0~11,19~.0~12,16~]dotriaconta-2,4,6,8,10(32),11,13,16,18-nonaen-24-one] |  | 450 nM | 695 nM |  |  |  |
